Experiments:
mouse TGR5 receptor = biological target: T1, mouse TGR5 receptor (Mus musculus, UniProt Q80SS6); experiment: Mouse TGR5 cAMP production assay (HTRF, Cisbio cAMP HiRange); format: cell-based; settings: HEK293-EBNA cells overexpressing mouse TGR5, HTRF cAMP HiRange; coded A-D
T1 construct: expressed in transfected cells; host or cells: HEK293-EBNA (293 c18, ATCC CRL10852), Hygromycin B selection
T1 sequence (Q80SS6 1-329): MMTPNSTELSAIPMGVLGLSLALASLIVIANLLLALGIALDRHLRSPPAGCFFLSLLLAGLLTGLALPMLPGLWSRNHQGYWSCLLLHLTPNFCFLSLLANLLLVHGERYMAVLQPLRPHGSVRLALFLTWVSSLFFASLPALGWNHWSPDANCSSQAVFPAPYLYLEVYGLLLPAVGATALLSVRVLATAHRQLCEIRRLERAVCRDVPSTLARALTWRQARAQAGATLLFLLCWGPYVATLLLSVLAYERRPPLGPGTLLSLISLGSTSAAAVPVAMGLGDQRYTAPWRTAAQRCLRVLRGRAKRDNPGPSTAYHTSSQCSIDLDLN
How it was run: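 cAMP read by HTRF competition after 1 h room-temperature compound exposure of mouse TGR5-overexpressing HEK293-EBNA cells. Cells were suspended in serum-free DMEM containing 500 μM IBMX; compounds ran as 12-point half-log dilutions in duplicate; EC50 derived.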

human TGR5 receptor = biological target: T2, human TGR5 receptor (Homo sapiens, UniProt Q8TDU6); experiment: Human TGR5 cAMP production assay; format: cell-based; settings: human TGR5, luminescent cAMP assay; coded A-D; read-out: Human TGR5 Lum. cAMP Activity (EC50)
T2 construct: host or cells: CHO-K1 (hTGR5-CHO cells)
T2 sequence (Q8TDU6 1-330): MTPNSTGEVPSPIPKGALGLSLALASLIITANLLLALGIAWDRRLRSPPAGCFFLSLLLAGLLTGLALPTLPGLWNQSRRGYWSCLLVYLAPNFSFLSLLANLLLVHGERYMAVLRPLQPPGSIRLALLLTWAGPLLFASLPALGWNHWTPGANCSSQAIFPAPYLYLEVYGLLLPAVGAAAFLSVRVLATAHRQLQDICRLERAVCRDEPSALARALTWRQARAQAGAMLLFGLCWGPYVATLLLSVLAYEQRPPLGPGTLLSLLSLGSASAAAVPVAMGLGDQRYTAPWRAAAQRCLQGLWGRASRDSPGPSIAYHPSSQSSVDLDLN
How it was run: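 Intracellular cAMP read by luminescent enzyme-complementation (XS+) after overnight development, following 1 h room-temperature compound treatment of hTGR5-CHO-K1 cells in IBMX plus anti-cAMP antibody. Compounds tested as half-log dilution series; EC50 derived.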

EC50 (mouse TGR5 receptor) [nM] | EC50 (human TGR5 receptor) [nM] | SMILES
< 100 | < 100 | Cc1cnccc1-c1cccc(C(C)(C)N(CCCC(=O)NCS(=O)(=O)O)S(=O)(=O)c2ccccc2C(F)(F)F)c1 [Compound 20AB]
< 100 | < 100 | CCc1cnccc1-c1cccc([C@H](C)N(CCCC(=O)NCCS(=O)(=O)O)S(=O)(=O)c2ccccc2C)c1 [Compound 20AR, (S)-2-(4-(N-(1-(3-(3-ethylpyridin-4-yl)phenyl)ethyl)-2-methylphenyl-sulfonamido)butanamido)ethane sulfonic acid]
< 100 | < 100 | CCc1cnccc1-c1cccc([C@H](C)N(CCCC(=O)NCCCS(=O)(=O)O)S(=O)(=O)c2cccc(Cl)c2C)c1 [Compound 20AM, (S)-3-(4-(3-chloro-N-(1-(3-(3-ethylpyridin-4-yl)phenyl)ethyl)-2-methylphenylsulfonamido)butanamido)propane-1-sulfonic acid]
< 100 | < 100 | Cc1cnccc1-c1cccc([C@H](C)N(CCCC(=O)NCCS(=O)(=O)NCCCC(=O)O)S(=O)(=O)c2ccccc2C(F)(F)F)c1 [Compound 20BK]
< 100 | < 100 | Cc1cnccc1-c1cccc([C@H](C)N(CCCC(=O)NCCNS(=O)(=O)CC(=O)O)S(=O)(=O)c2cccc(Cl)c2C)c1 [Compound 26AA]
< 100 | < 100 | Cc1cnccc1-c1cccc([C@H](C)N(CCCCC(=O)NCCS(=O)(=O)NCC(=O)O)S(=O)(=O)c2ccccc2C(F)(F)F)c1 [Compound 20BL, (S) 2-(4-(N-(1-(3-(3-methylpyridin-4-yl)phenyl)ethyl)-2-(trifluoromethyl)phenylsulfonamidopentanamido)ethylsulfonamido)acetic acid]
< 100 | < 100 | Cc1cnccc1-c1cccc(C(C)(C)N(CCCC(=O)NCC(=O)O)S(=O)(=O)c2cccc(Cl)c2C)c1 [Compound 21AB, 2-(4-(3-chloro-2-methyl-N-(2-(3-(3-methylpyridin-4-yl)phenyl)propan-2-yl)phenylsulfonamido)butanamido)acetic acid]
< 100 | < 100 | Cc1cnccc1-c1cccc(C(C)(C)N(CCCC(=O)NCCS(=O)(=O)NCC(=O)O)S(=O)(=O)c2cccc(Cl)c2C)c1 [Compound 20AW, (4-(3-chloro-2-methyl-N-(2-(3-(3-methylpyridin-4-yl)phenyl)propan-2-yl)phenylsulfonamido)-N-butanamidoethylsulfonamido)acetic acid]
< 100 | < 100 | Cc1cnccc1-c1cccc(C(C)(C)N(CCCC(=O)NCCS(=O)(=O)O)S(=O)(=O)c2ccccc2C(F)(F)F)c1 [Compound 20AA, 2-(4-(N-(2-(3-(3-methylpyridin-4-yl)phenyl)propan-2-yl)-2-(trifluoromethyl)phenylsulfonamido)butanamido)ethanesulfonic acid]
< 100 | < 100 | CCc1cnccc1-c1cccc([C@H](C)N(CCCC(=O)NCCS(=O)(=O)NCC(=O)O)S(=O)(=O)c2ccccc2C)c1 [Compound 20BU, (S)-2-(4-(2-methyl-N-(1-(3-(3-ethylpyridin-4-yl)phenyl)ethyl)phenylsulfonamido)butanamidoethylsulfonamido)acetate]
< 100 | < 100 | CCc1cnccc1-c1cccc(C(C)(C)N(CCCC(=O)NCCS(=O)(=O)O)S(=O)(=O)c2cccc(Cl)c2C)c1 [Compound 20AC, 2-(4-(3-chloro-N-(2-(3-(3-ethylpyridin-4-yl)phenyl)propan-2-yl)-2-methylphenylsulfonamido)butanamido)ethanesulfonic acid]
< 100 | < 100 | CCc1cnccc1-c1cccc([C@H](C)N(CCCC(=O)NCCS(=O)(=O)O)S(=O)(=O)c2cccc(Cl)c2C)c1 [Compound 21AQ, (S)-2-(4-(3-chloro-N-(1-(3-(3-ethylpyridin-4-yl)phenyl)ethyl)-2-methylphenylsulfonamido)butanamido)ethanesulfonic acid]
< 100 | < 100 | CCc1cnccc1-c1cccc([C@H](C)N(CCCC(=O)NCCS(=O)(=O)NCC(=O)O)S(=O)(=O)c2cccc(Cl)c2C)c1 [Compound 21AT, (S) 2-(3-(4-(3-chloro-2-methyl-N-(1-(3-(3-ethylpyridin-4-yl)phenyl)ethyl)phenylsulfonamido)butanamido)ethylsulfonamido)acetic acid]
< 100 | < 100 | CCc1cnccc1-c1cccc([C@H](C)N(CCCC(=O)NCCS(=O)(=O)NCC(=O)O)S(=O)(=O)c2ccccc2C(F)(F)F)c1 [Compound 20BG]
< 100 | < 100 | Cc1cnccc1-c1cccc(C(C)(C)N(CCCC(=O)NCCCS(=O)(=O)O)S(=O)(=O)c2cccc(Cl)c2C)c1 [Compound 20AD, 3-(4-(3-chloro-2-methyl-N-(2-(3-(3-methylpyridin-4-yl)phenyl)propan-2-yl)phenylsulfonamido)butanamido)propane-1-sulfonic acid]
< 100 | < 100 | Cc1cnccc1-c1cccc(C(C)(C)N(CCCC(=O)O)S(=O)(=O)c2ccccc2C(F)(F)F)c1 [Compound 14, 4-(N-(2-(3-(3-methylpyridin-4-yl)phenyl)propan-2-yl)-2-(trifluoromethyl)phenylsulfonamido)butanoic acid]
< 100 | < 100 | Cc1cnccc1-c1cccc([C@H](C)N(CCCC(=O)NCCS(=O)(=O)NCCC(=O)O)S(=O)(=O)c2cccc(Cl)c2C)c1 [Compound 21AL]
< 100 | < 100 | Cc1cnccc1-c1cccc([C@H](C)N(CCCCNC(=O)NCS(=O)(=O)O)S(=O)(=O)c2ccccc2C(F)(F)F)c1 [Compound 28AC, (S)-(3-(4-(N-(1-(3-(3-methylpyridin-4-yl)phenyl)ethyl)-2-(trifluoromethyl)phenylsulfonamido)butyl)ureido)methanesulfonic acid]
< 100 | < 100 | Cc1cnccc1-c1cccc([C@H](C)N(CCCC(=O)NCCNS(=O)(=O)CCC(=O)O)S(=O)(=O)c2cccc(Cl)c2C)c1 [Compound 26AB]
100 to 999 | < 100 | Cc1cnccc1-c1cccc([C@H](C)N(CCCCNC(=O)NCCS(=O)(=O)NCC(=O)O)S(=O)(=O)c2ccccc2C(F)(F)F)c1 [Compound 28AA, (S)-2-(3-(4-(N-(1-(3-(3-methylpyridin-4-yl)phenyl)ethyl)-2-(trifluoromethyl)phenylsulfonamido)butyl)ureido)ethanesulfonamido acetic acid]
< 100 | < 100 | Cc1cnccc1-c1cccc([C@H](C)N(CCCCC(=O)NCCS(=O)(=O)NCCC(=O)O)S(=O)(=O)c2ccccc2C(F)(F)F)c1 [Compound 20BM]
100 to 999 | < 100 | Cc1cnccc1-c1cccc(C(C)(C)N(CCCNC(=O)NCS(=O)(=O)O)S(=O)(=O)c2cccc(Cl)c2C)c1 [Compound 29, (3-(3-((3-Chloro-2-methyl-N-(2-(3-(3-methylpyridin-4-yl)phenyl)propan-2-yl)phenyl)sulfonamide)propyl)ureido) methanesulfonic acid]
< 100 | < 100 | CCc1cnccc1-c1cccc([C@H](C)N(CCCCNC(=O)NCS(=O)(=O)O)S(=O)(=O)c2ccccc2C(F)(F)F)c1 [Compound 28AH, (S)-(3-(4-(N-(1-(3-(3-ethylpyridin-4-yl)phenyl)ethyl)-2-(trifluoromethyl)phenylsulfonamido)butyl)ureido)methanesulfonic acid]
